In patent US20130034522A1, “THERAPIES FOR TREATING HEPATITIS C VIRUS INFECTION” (priority 2010, published 2013):
Where “and” joins values, the source holds several entries; their conditions need not be identical. Equal entries are not always repeated.

Assays:
Huh-7, ET replicon cells = test: Drug combination luciferase assay (4-day, MacSynergy); type: cell-based, Hepatitis C virus; conditions: combination with VX-950, 4 days
Source text: Replicon cell lines Huh-7, ET cells derived from the Huh-7 hepatocarcinoma cell line are obtained from Dr. Ralf Bartenschlager (Bartenschlager, R. Innovation: Hepatitis C virus replicons: potential role for drug development. Nat. Rev. Drug Discov. 2002, 1, 911-916. Krieger, N.; Lohmann, V.; Bartenschlager, R. Enhancement of hepatitis C virus RNA replication by cell culture-adaptive mutations. J. Virol. 2001, 75, 4614-4624. Lohmann, V.; Korner, F.; Koch, J.-O.; Herian, U.; Theilmann, L.; Bartenschlager, R. Replication of subgenomic hepatitis C virus RNAs in a hepatoma cell line. Science. 1999, 285, 110-113.) (Reblikon GmbH, Gau-Odernheim, Germany). […]
Huh-7, ET replicon cells are seeded in white opaque 96-well cell culture microtiter plates at sub-confluent density (3×10^3 cells per well) in a volume of 100 μL media. […] Plates are read for Luciferase counts using a luminometer (Wallac MicroBeta Trilux, Perkin Elmer™, MA, USA). […]

[1] = Study VX-222-002: combination treatment with VX-222 and VX-950 in healthy subjects (PK, safety); conditions: for AUC(0-t) / Cmax / half-life: human, plasma, oral; for AUC(0-t) / Cmax: geometric mean (CV %)
[2] = PK parameters of VX-222 in Study 101 Part C and Study 102 Part A; type: in vivo, human
Protocol: In Part C of Study 101, VX-222 was administered as multiple doses of 750 mg b.i.d. to treatment-naïve subjects with chronic hepatitis C for 3 days. In addition, in Part A of Study 102, VX-222 was administered as multiple doses ranging from 250 mg to 750 mg BID and 1500 mg once a day to treatment-naïve subjects with chronic hepatitis C for 3 days.

[3] = VX-222 400 mg BID with VX-950 1125 mg BID, Day 37, healthy subjects, fed
[4] = multiple doses, treatment-naïve chronic hepatitis C subjects

SMILES: CC1CCC(C(=O)N(c2cc(C#CC(C)(C)C)sc2C(=O)O)C2CCC(O)CC2)CC1 (stereo not drawn) [VX-222, 5-(3,3-Dimethylbut-1-ynyl)-3-[(trans-4-hydroxycyclohexyl)-(4-trans methylcyclohexanecarbonyl)amino]thiophene-2-carboxylic acid]
- Results VX-950 (synergy class) (Huh-7, ET replicon cells): Moderated synergy (50 uM^2%-100 uM^2%)
- volume of synergy (Huh-7, ET replicon cells; listed as 1): 90 uM^2% and 86 uM^2%
- Tmax [1, 3]: 4 [4,6] hr
- VX-222 plasma exposures ([1]; co-administered with VX-950, healthy subjects): increased
- VX-222 administered with VX-950 versus VX-222 alone ([1]; healthy subjects): 2 fold
- AUC(0-t) ([1]; 400 mg, AUC0-12, VX-222 400 mg BID alone, Day 10, healthy subjects, fed): 8560 ng·h/mL
- Cmax ([1]; 400 mg, VX-222 400 mg BID alone, Day 10, healthy subjects, fed): 1770 ng/mL
- half-life ([1]; 400 mg, T1/2, VX-222 400 mg BID alone, Day 10, healthy subjects, fed): 2.7 h
- AUC(0-t) ([1]; 1000 mg, AUC0-12, VX-222 1000 mg BID alone, Day 10, healthy subjects, fed): 25800 ng·h/mL
- Cmax ([1]; 1000 mg, VX-222 1000 mg BID alone, Day 10, healthy subjects, fed): 4120 ng/mL
- half-life ([1]; 1000 mg, T1/2, VX-222 1000 mg BID alone, Day 10, healthy subjects, fed): 4 h
- AUC(0-t) ([1]; AUC0-12, VX-222 400 mg BID with VX-950 1125 mg BID, Day 37, healthy subjects, fed): 29500 ng·h/mL
- AUC(0-t) ([1]; AUC0-12, VX-222 1000 mg BID with VX-950 1125 mg BID, Day 37, healthy subjects, fed): 59900 ng·h/mL
- Cmax [1, 3]: 3950 ng/mL
- Cmax ([1]; VX-222 1000 mg BID with VX-950 1125 mg BID, Day 37, healthy subjects, fed): 8150 ng/mL
- half-life ([1]; T1/2, VX-222 400 mg BID with VX-950 1125 mg BID, Day 37, healthy subjects, fed): 5.4 h
- half-life ([1]; T1/2, VX-222 1000 mg BID with VX-950 1125 mg BID, Day 37, healthy subjects, fed): 3.5 h
- VX-222 exposures versus dose ([2]; 250 to 750 mg b.i.d.): increased in an approximately dose proportional manner
- mean t1/2 across doses ([2]; all doses): remained unchanged across all doses
- VX-222 concentrations at the end of the dosing intervals ([2]; all subjects): > 319 ng/mL
- accumulation index ([2]; b.i.d. regimens): around 2 fold
- half-life ([2]; human, in vivo): ~5 h
- Tmax ([2]; human, in vivo, read-out: median tmax at steady state): 2 to 6 h
- exposures in treatment-naïve HCV subjects compared to healthy subjects ([2]; in vivo): around 2 fold
- accumulation index for AUC [2, 4]: 1.90 fold
- accumulation index for Cmax [2, 4]: 1.75 fold
- time to steady state ([2]; repeated measure analyses): ≤ 3 days
